Measured values from patent publication US8633208B2, “6-1H-imidazo-quinazoline and quinolines derivatives, new MAO inhibitors and imidazoline receptor ligands” (Rottapharm S.p.A, priority 2008, dated 2014).
Structures can show the parent of a compound that is named as a salt. Where two headings read alike, the source gives them in different places.

How the values were obtained:
human recombinant MAO-B = human recombinant MAO-B (Homo sapiens (Human), UniProt P27338); assay: Monoaminooxidase (MAO) activity assay, MAO-Glo luminescent method, MAO-B
human recombinant MAO-B, sequence (P27338 whole entry): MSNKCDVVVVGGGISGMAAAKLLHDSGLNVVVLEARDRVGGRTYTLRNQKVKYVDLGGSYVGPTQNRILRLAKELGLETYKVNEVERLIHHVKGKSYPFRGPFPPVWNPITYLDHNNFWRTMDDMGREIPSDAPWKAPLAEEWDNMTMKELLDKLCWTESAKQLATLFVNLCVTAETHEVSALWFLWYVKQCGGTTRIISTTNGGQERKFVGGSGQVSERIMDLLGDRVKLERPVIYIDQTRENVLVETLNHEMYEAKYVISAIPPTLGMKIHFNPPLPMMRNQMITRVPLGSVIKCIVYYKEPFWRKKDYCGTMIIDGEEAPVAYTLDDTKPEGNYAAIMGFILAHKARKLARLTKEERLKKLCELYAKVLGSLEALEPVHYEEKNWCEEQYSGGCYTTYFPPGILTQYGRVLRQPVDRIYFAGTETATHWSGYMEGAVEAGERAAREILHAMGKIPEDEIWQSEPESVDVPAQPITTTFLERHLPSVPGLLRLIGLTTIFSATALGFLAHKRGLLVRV
Procedure: Monoaminooxidase (MAO) Activity Assay.
Inhibitory activity of compounds was evaluated by a homogeneous luminescent method, the MAO-Glo™ Assay (Promega), measuring the monoamine oxidase activity (MAOs) from recombinant source (microsomes from baculovirus infected insect cells, Sigma). Experiments were performed according to the Supplier's procedure, incubating human recombinant MAO-A or MAO-B with a luminogenic substrate, a derivative of beetle luciferin ((4S)-4,5-dihydro-2-(6-hydroxybenzothiazolyl)-4-thiazolecarboxylic acid). […] The MAO-Glo™ Assay was performed in two steps:
Step 1. The MAO reaction: MAO substrate was incubated with MAO-A or MAO-B (1 μg/sample) in the absence (Total activity) or presence (modulated activity) of test compounds. Total activity was determined in the presence the appropriate solvent. […] Reaction started adding the enzyme solution and samples were incubated for 60 min at room temperature. For negative control reaction, samples of MAO reaction buffer (100 mM Hepes, 5% glycerol, pH 7.5) indeed the test compound were included. For MAO-B activity assay, MAO reaction buffer contain 10% DMSO, in order to increase enzymatic activity. Step 2. […] At the end of incubation 50 μl of Luciferin Detection reagent were added to each well, plate was incubated at room temperature for 20 min, then luminescent signal was detected by luminometer (integration time 0.25-1 sec per well). […] Net MAO-dependent luminescence (net RLU) were calculated by subtracting the average luminescence of the negative control reaction without MAO enzyme. A reduction of net signal in the presence of test compound, with respect to total activity, reflect its effect on MAOs activity. […] A percentage of inhibition for each concentration tested were calculated and the IC50 value was estimated by linear regression.

human recombinant MAO-A = human recombinant MAO-A (Homo sapiens (Human), UniProt P21397); assay: Monoaminooxidase (MAO) activity assay, MAO-Glo luminescent method, MAO-A
human recombinant MAO-A, sequence (P21397 whole entry): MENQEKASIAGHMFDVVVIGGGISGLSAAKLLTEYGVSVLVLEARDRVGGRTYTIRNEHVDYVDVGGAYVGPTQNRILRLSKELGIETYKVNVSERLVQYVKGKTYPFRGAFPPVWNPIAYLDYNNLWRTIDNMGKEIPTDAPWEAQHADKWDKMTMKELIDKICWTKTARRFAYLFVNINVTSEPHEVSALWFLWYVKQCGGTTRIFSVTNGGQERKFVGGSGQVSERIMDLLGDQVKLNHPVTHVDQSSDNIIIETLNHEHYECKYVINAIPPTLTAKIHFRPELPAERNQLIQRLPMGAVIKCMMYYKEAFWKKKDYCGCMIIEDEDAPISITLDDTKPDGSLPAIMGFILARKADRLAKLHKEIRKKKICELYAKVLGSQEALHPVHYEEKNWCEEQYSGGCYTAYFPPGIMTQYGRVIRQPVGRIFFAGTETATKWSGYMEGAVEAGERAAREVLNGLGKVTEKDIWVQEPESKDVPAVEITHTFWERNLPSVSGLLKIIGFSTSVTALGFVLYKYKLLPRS

I2 Imidazoline Receptor = assay: Binding study towards I2 imidazoline receptor subtype in rat brain ([3H]2-BFI displacement); conditions: read-out: [3H]2-BFI binding IC50; rat whole brain membranes, [3H]-2BFI 2.5x10-9 M, 90 min at 25° C.
Procedure: Binding Study Towards I2 Imidazoline Receptor Subtype in Rat Brain.
Male Wistar rats (240-300 g, Harlan, Italy) were sacrificed by decapitation. Whole brains were immediately removed on ice and homogenised in 10 volumes of buffered sucrose (0.32M in 50 mM Tris-HCl, pH 7.4 at 4° C.) using a motor driven Teflon-glass homogeniser. The homogenate was centrifuged at 1000×g for 10 min at 4° C. The resultant supernatants were pooled and centrifuged at 32000×g for 20 min at 4° C. The supernatants were discarded and each pellet suspended in 10 volumes of assay buffer (50 mM Tris-HCl, 1 mM MgCl2, pH 7.4 at 4° C.) and spun at 32000×g for 20 min at 4° C. The pellets were washed twice by repeated centrifugation at 32000×g for 20 min at 4° C. The final pellets were stored at −80° C. until use. Prior to radioligand binding studies, membrane pellets were thawed and washed a further 4 times by re-suspension in 10 volumes of assay buffer (as above) and repeated centrifugation to remove any possible endogenous inhibitors of binding. […] Non specific binding was determined in the presence of 10^-5 M BU224 (Tocris Bioscience). The incubation, in a final volume of 1 ml, was performed in polystyrene multiwell 24, started adding membranes suspension and was carried out for 90 min at 25° C. With the exception of total binding and non specific binding, all concentration points were performed in duplicate. Compounds were tested in 3-5 different concentrations, ranging from 10^-10 M to 10^-5 M final concentration.

CD1 Mice = assay: Tail suspension test in mice; assay type: in vivo; conditions: Table 3; for MPE (% inhibition in immobility time): 30 min before the test
Procedure: Tail Suspension Test in Mice
To evaluate novel antidepressants compounds several animal models have been developed. […] The antidepressant effect of representative examples of compounds of formula (I) has been evaluated according to the procedure below. The immobility was induced according to the procedure of Stem et al. (1985). CD1 Mice (Harlan, Italy) were individually suspended 75 cm above the top with an adhesive tape placed 1 cm from the tip of the tail. Immobility duration was recorded for 5 min. Mice were considered immobile only when they hung passively and completely motionless. Compounds were given orally, 30 min before the test at doses ranging between 0.3 and 30 mg/kg. Data collected were expressed as mean percent effect (MPE), which represents the % of inhibition in immobility time between the animals treated with representative compounds of formula (I) and the controls that received only the vehicle.

[1] = read-out: MAO A activity IC50, human recombinant MAO-A, substrate 40 μM, 60 min room temperature

In the case of c1cn(-c2ccc3nc(-c4ccoc4)ccc3c2)cn1 [Example 20, [6-(1H-imidazol-1-yl)-2-(3-furyl)]quinoline dihydrochloride], the IC50 (human recombinant MAO-B) is reported as greater than 10000 nM, the IC50 (human recombinant MAO-A; [1]) is reported as 250 nM and the IC50 (I2 Imidazoline Receptor) is reported as 1190 nM.

For C#CCN(C)CCCOc1ccc(Cl)cc1Cl [Clorgyline, reference compound], the IC50 (I2 Imidazoline Receptor) was 1530 nM.

In the case of COc1ccc(-c2ncc3cc(-n4cnc(C)c4)ccc3n2)cc1 (as salt: hydrochloride) [Example 6, [6-(4-methyl-1H-imidazol-1-yl)-2-(4-methoxyphenyl)]quinazoline], the melting point is reported as 201 to 202 °C.

For COc1cccc(-c2ncc3cc(-n4cnc(C)c4)ccc3n2)c1 [Example 8, [6-(4-methyl-1H-imidazol-1-yl)-2-(3-methoxyphenyl)]quinazoline], the melting point was 294 to 296 °C.

For CS(=O)(=O)c1ccc(-c2ccc3cc(-n4ccnc4)ccc3n2)cc1 [Example 25, [6-(1H-imidazol-1-yl)-2-(4-methanesulfonylphenyl)]quinoline dihydrochloride], the IC50 (human recombinant MAO-B) was greater than 10000 nM, the “MPE (% inhibition in immobility time)” value (CD1 Mice; dose 3 mg/Kg OS) was 23% and the “MPE (% inhibition in immobility time)” value (CD1 Mice; dose 10 mg/Kg OS) was 54%. For the same compound, the “MPE (% inhibition in immobility time)” value (CD1 Mice; dose 30 mg/Kg OS) was 40% and the ED50 (CD1 Mice; dose yielding 50% reduction of immobility, oral) was 8.7 mg/Kg; OS.

With FC(F)(F)Oc1ccc(-c2ccc3cc(-n4ccnc4)ccc3n2)cc1 [Example 23, [6-(1H-imidazol-1-yl)-2-(4-trifluoromethoxyphenyl)]quinoline dihydrochloride] the IC50 (human recombinant MAO-B) was greater than 10000 nM, the IC50 (human recombinant MAO-A; [1]) was 150 nM and the IC50 (I2 Imidazoline Receptor) was 820 nM.

Work on c1cn(-c2ccc3nc(-c4ccc5c(c4)OCCO5)ncc3c2)cn1 [Example 15, [6-(1H-imidazol-1-yl)-2-(2,3-dihydro-1,4-benzodioxin-6-yl)]quinazoline] yielded an IC50 (human recombinant MAO-B) greater than 10000 nM, an IC50 (human recombinant MAO-A) greater than 10000 nM and an IC50 (I2 Imidazoline Receptor) of 500 nM.

For COc1ccccc1-c1ccc2cc(-n3ccnc3)ccc2n1 [Example 19, [6-(1H-imidazol-1-yl)-2-(2-methoxyphenyl)]quinoline dihydrochloride], the IC50 (human recombinant MAO-B) was greater than 10000 nM, the IC50 (human recombinant MAO-A) was greater than 10000 nM and the IC50 (I2 Imidazoline Receptor) was 3160 nM.

In the case of COc1ccccc1-c1ccc2cc(-n3ccnc3C)ccc2n1 (as salt: hydrochloride) [Example 27, [6-(2-methyl-1H-imidazol-1-yl)-2-(2-methoxyphenyl)]quinoline dihydrochloride], the melting point is reported as 235 °C (dec.).

Compound CN(C)c1ccc(-c2ccc3cc(-n4ccnc4)ccc3n2)cc1 (as salt: hydrochloride) [Example 22, [6-(1H-imidazol-1-yl)-2-(4-dimethylaminophenyl)]quinoline trihydrochloride] has a melting point of 284 to 286 °C.

For COc1ccc(-c2ccc3cc(-n4cnc(C)c4)ccc3n2)cc1 (as salt: hydrochloride) [Example 31, [6-(4-methyl-1H-imidazol-1-yl)-2-(4-methoxyphenyl)]quinoline dihydrochloride], the melting point was 276 to 278 °C (dec.).

Cc1cn(-c2ccc3nc(-c4ccc(F)cc4)ccc3c2)cn1 (as salt: hydrochloride) [Example 32, [6-(4-methyl-1H-imidazol-1-yl)-2-(4-fluorophenyl)]quinoline dihydrochloride] gave a melting point of 264 to 268 °C.

COc1ccc(-c2ncc3cc(-n4ccnc4C)ccc3n2)cc1 (as salt: hydrochloride) [Example 3, [6-(2-methyl-1H-imidazol-1-yl)-2-(4-methoxyphenyl)]quinazoline] gave a melting point of 198.3 to 200.3 °C.

With c1ccc(-c2ccc3cc(-n4ccnc4)ccc3n2)cc1 [Example 17] the IC50 (human recombinant MAO-B; read-out: MAO B activity IC50) was 10000 nM and the IC50 (I2 Imidazoline Receptor) was 420 nM.

Cc1cn(-c2ccc3nc(-c4ccoc4)ncc3c2)cn1 [Example 12, [6-(4-methyl-1H-imidazol-1-yl)-2-(3-furyl)]quinazoline] gave a melting point of 160.5 to 163.2 °C.

Work on COc1ccccc1-c1ccc2cc(-n3ccnc3)ccc2n1 (as salt: hydrochloride) [Example 19, [6-(1H-imidazol-1-yl)-2-(2-methoxyphenyl)]quinoline dihydrochloride] yielded a melting point of 251.5 to 252 °C.

With COc1ccc(-c2ccc3cc(-n4ccnc4)ccc3n2)cc1 (as salt: hydrochloride) [Example 18, [6-(1H-imidazol-1-yl)-2-(4-methoxyphenyl)]quinoline dihydrochloride] the melting point was 266 to 267 °C.

In the case of Cc1nccn1-c1ccc2nc(-c3ccccc3)ccc2c1 (as salt: hydrochloride) [Example 29, [6-(2-methyl-1H imidazol-1-yl)-2-(phenyl)]quinoline dihydrochloride], the melting point is reported as 296 to 297 °C.

In the case of COc1ccc(-c2ccc3cc(-n4ccnc4C)ccc3n2)cc1 (as salt: hydrochloride) [Example 26, [6-(2-methyl-1H-imidazol-1-yl)-2-(4-methoxyphenyl)]quinoline dihydrochloride], the melting point is reported as 230 °C (dec.).

In the case of FC(F)(F)Oc1ccc(-c2ccc3cc(-n4ccnc4)ccc3n2)cc1 (as salt: hydrochloride) [Example 23, [6-(1H-imidazol-1-yl)-2-(4-trifluoromethoxyphenyl)]quinoline dihydrochloride], the melting point is reported as 260 to 262 °C.

For Cc1nccn1-c1ccc2nc(-c3ccoc3)ccc2c1 (as salt: hydrochloride) [Example 28, [6-(2-methyl-1H imidazol-1-yl)-2-(3-furyl)]quinoline dihydrochloride], the melting point was 240.1 to 243.2 °C.

Compound Cc1cncn1-c1ccc2nc(-c3ccccc3)ncc2c1 (as salt: hydrochloride) [Example 5, [6-(5-methyl-1H-imidazol-1-yl)-2-phenyl]quinazoline] has a melting point of 138.5 to 139.1 °C.

For Cc1cn(-c2ccc3nc(-c4ccc(S(C)(=O)=O)cc4)ncc3c2)cn1 (as salt: hydrochloride) [Example 11, [6-(4-methyl-1H-imidazol-1-yl)-2-(4-methanesulfonylphenyl)]quinazoline], the melting point was 276.4 to 281.7 °C.

Work on c1cn(-c2ccc3nc(-c4ccoc4)ccc3c2)cn1 (as salt: hydrochloride) [Example 20, [6-(1H-imidazol-1-yl)-2-(3-furyl)]quinoline dihydrochloride] yielded a melting point of 293.1 to 295.6 °C.

Cc1cc(OC(F)(F)F)ccc1-c1ccc2cc(-n3ccnc3)ccc2n1 (as salt: hydrochloride) [Example 24, [6-(1H-imidazol-1-yl)-2-(2-methyl-4-trifluoromethoxyphenyl)]quinoline dihydrochloride] gave a melting point of 269.7 to 274.5 °C.

In the case of c1ccc2oc(C3=NCCN3)cc2c1 [Example 2-BFI, 2-benzofuranylimidazoline, reference compound], the IC50 (human recombinant MAO-A; [1]) is reported as greater than 1000 nM and the IC50 (I2 Imidazoline Receptor) is reported as 7 nM.

Compound Fc1ccc(-c2ccc3cc(-n4ccnc4)ccc3n2)cc1 (as salt: hydrochloride) [Example 21, [6-(1H-imidazol-1-yl)-2-(4-fluorophenyl)]quinoline dihydrochloride] has a melting point of 280.7 to 282 °C.

For Cc1cn(-c2ccc3nc(-c4ccc5c(c4)OCO5)ncc3c2)cn1 (as salt: hydrochloride) [Example 9, [6-(4-methyl-1H-imidazol-1-yl)-2-(1,3-benzodioxol-5-yl)]quinazoline], the melting point was 215.3 to 218.7 °C.

CSc1ccc(-c2ccc3cc(-n4cnc(C)c4)ccc3n2)cc1 (as salt: hydrochloride) [Example 33, [6-(4-methyl-1H-imidazol-1-yl)-2-(4-methylthiophenyl)]quinoline dihydrochloride] showed a melting point of 294 to 296 °C.

C#CCN(C)[C@H](C)Cc1ccccc1 [Deprenyl, reference compound] showed an IC50 (I2 Imidazoline Receptor) of 2310 nM.
